Test results from ChEMBL document CHEMBL1130548, “Synthesis and structure-activity relationships for a series of substituted pyrrolidine NK1/NK2 receptor antagonists” (Bioorg Med Chem Lett, 1997).
Blank lines part the entries; values can stand above or below the molecule they belong to.

Experiments:
[1] = target: Substance-P receptor (Cavia porcellus, UniProt P30547); assay: Binding affinity for NK1 receptor in guinea pig lung was determined by using [125 I]-Bolton Hunter labeled SP
[2] = Partition coefficient (logP); type: physicochemical; details: octanol/water
[3] = The solubility in a […] phosphate buffer solution at pH 7.4; type: ADME
[4] = The pKa1 value for the compound was determined by titrating in an aqueous solution (ISA).; type: physicochemical; details: read-out: pKa1
[5] = The relative permeability was measured from transport studies using polycarbonate membranes and Dulbecco's modified eagle medium with 10% fetal bovine serum.; type: ADME
[6] = species: Rattus norvegicus; assay: The relative metabolic stability at 10 uM concentration was determined using rat liver […] fortified with NADPH.; type: functional
[7] = The pKa2 value for the compound was determined by titrating in an aqueous solution (ISA).; type: physicochemical; details: read-out: pKa2
[8] = Partition coefficient (logD); type: physicochemical; details: octanol/water
[9] = system: Cavia porcellus; assay: The perorally administered compound was evaluated for percentage inhibition of capsaicin induced respiratory effects at 10 mg / kg concentration in guinea pig; details: po
[10] = The pKa3 value for the compound was determined by titrating in an aqueous solution (ISA).; type: physicochemical; details: read-out: pKa3

Substance-P receptor, sequence (P30547 whole entry): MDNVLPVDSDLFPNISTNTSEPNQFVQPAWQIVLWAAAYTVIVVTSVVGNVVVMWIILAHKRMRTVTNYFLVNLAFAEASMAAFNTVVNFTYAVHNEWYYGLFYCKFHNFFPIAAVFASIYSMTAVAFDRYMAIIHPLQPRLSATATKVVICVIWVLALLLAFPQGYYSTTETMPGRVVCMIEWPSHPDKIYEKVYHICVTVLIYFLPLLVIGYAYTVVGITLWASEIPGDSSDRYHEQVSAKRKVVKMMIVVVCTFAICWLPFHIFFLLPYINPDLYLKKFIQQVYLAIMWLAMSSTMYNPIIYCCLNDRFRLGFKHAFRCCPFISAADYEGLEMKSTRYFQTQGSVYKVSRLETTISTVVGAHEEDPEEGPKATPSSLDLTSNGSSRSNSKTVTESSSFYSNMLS

Compound: COc1cc(C(=O)N2CCC(CCN3CCC(C(N)=O)(c4ccccc4)CC3)(c3ccc(F)c(F)c3)C2)cc(OC)c1OC (configuration not stated)
IC50 [1]: 9.76 nM

Compound: COc1cc(C(=O)N2CCC(CCN3CCC(C(N)=O)(c4ccccc4)CC3)(c3ccc(Cl)cc3)C2)cc(OC)c1OC (configuration not stated)
IC50 [1]: 8.62 nM

Compound: COc1cc(C(=O)N2CCC(CCN3CCC(C(N)=O)(c4cccnc4)CC3)(c3ccc(Cl)c(Cl)c3)C2)cc(OC)c1OC (configuration not stated)
IC50 [1]: 8.14 nM

Compound: COc1cc(C(=O)N2CCC(CCN3CCC(C(N)=O)(c4ccncc4)CC3)(c3ccc(Cl)c(Cl)c3)C2)cc(OC)c1OC (configuration not stated)
IC50 [1]: 4.88 nM

Compound: COc1cccc(C2(C(N)=O)CCN(CCC3(c4ccc(Cl)c(Cl)c4)CCN(C(=O)c4cc(OC)c(OC)c(OC)c4)C3)CC2)c1 (configuration not stated)
IC50 [1]: 8.49 nM

Compound: COc1cc(C(=O)N2CCC(CCN3CCC(C(N)=O)(c4ccccc4)CC3)(c3cccnc3)C2)cc(OC)c1OC (configuration not stated)
IC50 [1]: 567 nM

Compound: COc1cc(C(=O)N2CC[C@](CCN3CCC(C(N)=O)(c4cccnc4)CC3)(c3ccc(Cl)c(Cl)c3)C2)cc(OC)c1OC.Cl
logP [2]: 1.9 | solubility [3]: 548 µg/mL | pKa [4]: 7.6 | Relative permiability [5]: 0.1 | IC50 [1]: 4.01 nM | Relative metabolic stability [6]: 0.72 | pKa [7]: 3.97 | logD [8]: 2.59 | inhibition in vivo at 10 mg/kg [9]: 38%

Compound: COc1cc(C(=O)N2CCC(CCN3CCC(C(=O)NCCN4CCOCC4)(c4ccccc4)CC3)(c3ccc(Cl)c(Cl)c3)C2)cc(OC)c1OC (configuration not stated)
IC50 [1]: 7.53 nM

Compound: COc1cc(C(=O)N2CC[C@](CCN3CCC(C(N)=O)(c4ccncc4)CC3)(c3ccc(Cl)c(Cl)c3)C2)cc(OC)c1OC.Cl
logP [2]: 1.9 | solubility [3]: 408 µg/mL | pKa [4]: 7.53 | Relative permiability [5]: 0.1 | IC50 [1]: 2.49 nM | Relative metabolic stability [6]: 0.78 | pKa [7]: 4.14 | logD [8]: 2.64 | inhibition in vivo at 10 mg/kg [9]: 20%

logP ([2]; read-out: logP): 4.7 | solubility [3]: 426 µg/mL | pKa [4]: 7.92 | Relative permiability [5]: 2.1 | IC50 [1]: 3.94 nM | pKa [7]: 6.86 | logD ([8]; read-out: logD): 3.71
Compound: COc1cc(C(=O)N2CC[C@](CCN3CCC(C(=O)N4CCN(C)CC4)(c4ccccc4)CC3)(c3ccc(Cl)c(Cl)c3)C2)cc(OC)c1OC.Cl
Relative metabolic stability [6]: 0.43 | inhibition in vivo at 10 mg/kg [9]: 31%

logP ([2]; read-out: logP): 4.3 | solubility [3]: 25 µg/mL | pKa [4]: 7.51 | Relative permiability [5]: 3.7 | IC50 [1]: 4.34 nM | logD ([8]; read-out: logD): 3.02
Compound: COc1cc(C(=O)N2CC[C@](CCN3CCC(C(=O)N4CCOCC4)(c4ccccc4)CC3)(c3ccc(Cl)c(Cl)c3)C2)cc(OC)c1OC.Cl
Relative metabolic stability [6]: 0.77 | inhibition in vivo at 10 mg/kg [9]: 39%

Compound: COc1cc(C(=O)N2CCC(CCN3CCC(C(N)=O)(c4ccccc4)CC3)(c3ccc(F)cc3)C2)cc(OC)c1OC (configuration not stated)
IC50 [1]: 23.3 nM

Compound: COc1ccc(C2(CCN3CCC(C(N)=O)(c4ccccc4)CC3)CCN(C(=O)c3cc(OC)c(OC)c(OC)c3)C2)cc1OC (configuration not stated)
IC50 [1]: 36.7 nM

Compound: COc1cc(C(=O)N2CCC(CCN3CCC(C(N)=O)(c4ccccc4)CC3)(c3ccc(Cl)c(Cl)c3)C2)cc(OC)c1OC (configuration not stated)
IC50 [1]: 5.88 nM

logP ([2]; read-out: logP): 3.2 | solubility [3]: 1200 µg/mL | pKa [4]: 11.4 | Relative permiability [5]: 1.2 | pKa [10]: 6.71 | IC50 [1]: 2.46 nM | pKa [7]: 7.76 | logD ([8]; read-out: logD): 2.41
Compound: COc1cc(C(=O)N2CC[C@](CCN3CCC(C(=O)N4CCN(C)CC4)(c4cccnc4)CC3)(c3ccc(Cl)c(Cl)c3)C2)cc(OC)c1OC.Cl
inhibition in vivo at 10 mg/kg [9]: 13%

Compound: COc1cc(C(=O)N2CCC(CCN3CCC(C(N)=O)(c4ccc(F)cc4)CC3)(c3ccc(Cl)c(Cl)c3)C2)cc(OC)c1OC (configuration not stated)
IC50 [1]: 13.5 nM

IC50 [1]: 8.72 nM
Compound: COc1cc(C(=O)N2CCC(CCN3CCC(C(=O)N4CCOCC4)(c4ccccc4)CC3)(c3ccc(Cl)c(Cl)c3)C2)cc(OC)c1OC (configuration not stated)

Compound: COc1cc(C(=O)N2CCC(CCN3CCC(C(N)=O)(c4ccccc4)CC3)(c3cccc(Cl)c3)C2)cc(OC)c1OC (configuration not stated)
IC50 [1]: 10.7 nM

IC50 [1]: 23.2 nM
Compound: COc1cc(C(=O)N2CCC(CCN3CCC(C(=O)N4CCCCC4)(c4ccccc4)CC3)(c3ccc(Cl)c(Cl)c3)C2)cc(OC)c1OC (configuration not stated)

Compound: COc1cc(C(=O)N2CC[C@](CCN3CCC(C(N)=O)(c4ccccc4)CC3)(c3ccc(Cl)c(Cl)c3)C2)cc(OC)c1OC.Cl
logP [2]: 3.4 | solubility [3]: 70 µg/mL | pKa [4]: 7.64 | Relative permiability [5]: 1 | IC50 [1]: 3.11 nM | Relative metabolic stability [6]: 1 | logD ([8]; read-out: logD): 3.02 | inhibition in vivo at 10 mg/kg [9]: 60%

IC50 [1]: 4.51 nM
Compound: COc1cc(C(=O)N2CCC(CCN3CCC(C(=O)N4CCN(C)CC4)(c4ccccc4)CC3)(c3ccc(Cl)c(Cl)c3)C2)cc(OC)c1OC (configuration not stated)
